Consider three compounds from patent publication US20040102360A1, “Combination therapy” (priority 2002, published 2004).

Each structure is given as a SMILES string.

Test [1] relates to Akt1, Akt2 and Akt3. Description: Akt kinase assays (HTRF, GSK-derived biotinylated peptide substrate). Format: biochemical, human. The settings on record: as characterised in the figure legends. The protocol: Activated AKT isoforms and pleckstrin homology domain deletion constructs were assayed utilizing a GSK-derived biotinylated peptide substrate. The extent of peptide phosphorylation was determined by Homogeneous Time Resolved Fluorescence (HTRF) using a lanthamide chelate (Lance)-coupled monoclonal antibody specific for the phosphopeptide in combination with a streptavidin-linked allophycocyanin (SA-APC) fluorophore which will bind to the biotin moiety on the peptide. When the Lance and APC are in proximity (i.e. bound to the same phosphopeptide molecule), a non-radiative energy transfer takes place from the Lance to the APC, followed by emission of light from APC at 665 nm.
The reaction is assembled by adding 16 TL of the ATP/MgCl2 working solution to the appropriate wells of a 96-well microtiter plate. Inhibitor or vehicle (1.0 Tl) is added followed by 10 Tl of peptide working solution. The reaction is started by adding 13 Tl of the enzyme working solution and mixing. The reaction is allowed to proceed for 50 min and then stopped by the addition of 60 Tl HTRF quench buffer. The stopped reactions were incubated at room temperature for at least 30 min and then read on the Discovery instrument.

The test system of test [2] is MCF7 cells. Description: Caspase 3 activation apoptosis assay in MCF7 cells. The settings on record: co-treatment with Camptothecin, FIG. 3. The test is classed as cell-based, human. The protocol: (§1) The herein disclosed inhibitors were evaluated as to the ability to increase cell death. Inhibitors of Akt and inhibitors of Akt and a protein kinase were assessed alone and in combination to determine the effect on caspase 3 activation.
(§2) Apoptosis Assay: Caspase 3 Activation
(§3) Cells were seeded in 96 well plates at concentrations ranging from 2×10^3 to 1×10^4 cells per well in their respective growth media. For anchorage independent assays (spheroids) cells were plated in 96 well plates that had been coated with poly-heme(poly 2-hydroxyethylmethacrylate [Sigma] 10 mg/ml in 95% ethanol). 72 hours later caspase 3 assays were set up as follows:
(§4) a. For standard combination assays, compounds were added at respective concentrations indicated and plates incubated at 37° C. in a CO2 incubator for 18 hours. For standard combination assays utilizing treatment with camptothecin, compounds and camptothecin were added at the same time at the respective concentrations indicated.
(§5) b. For combinations involving addition of the death receptor ligand TRAIL/Apo2L (Research Diagnostics) compounds were added for 1.5 hours prior to addition of TRAIL and plates incubated an additional 3 to 4 hours post TRAIL addition. In the case of the time course, plates were incubated for 2, 3, 4, 5, 6 and 7 hrs with Trail ligand before ending the assay. […]

Test [3] concerns MDA-MB468 cells. Description: Caspase 3 activation apoptosis assay in MDA-MB468 cells. Format: cell-based, human. As to conditions: FIG. 6 (a). The protocol: as §1, §2, §3, §4, §5
Test [4] deals with LnCaP/Akt3 cell line. Description: Caspase 3 activation apoptosis assay in LnCaP/Akt3 cells. Format: cell-based, human. The settings on record: FIG. 4 (b). How it is done:
as §1, §2, §3, §4, §5

Test [5] concerns LnCaP cells. Description: Caspase 3 activation apoptosis assay in LnCaP cells. Format: cell-based, human. How it is done:
as §1, §2, §3, §4, §5

For `O=c1[nH]c2ccccc2n1C1CCN(Cc2ccc(-c3nc4cc5nc[nH]c5cc4nc3-c3ccccc3)cc2)CC1` [Compound 12-5, 1-{1-[4-(7-Phenyl-1H-imidazo[4,5-g]quinoxalin-6-yl)benzyl]piperidin-4-yl}-1,3-dihydro-2H-benzimidazol-2-one], the Akt isoform selectivity result in test [1] is “selective Akt1 and Akt2 inhibitor”. Moreover, the “fold increase in Caspase 3 activation over Camptothecin alone” value in test [2] turned out to be 5.8 fold.
On to `CN(C)CC(C)(C)CNc1nn2c(-c3ccccc3)nnc2cc1C1CCC1` [Compound 1, N′-(7-Cyclobutyl-3-phenyl-[1,2,4]triazolo[4,3-b]pyridazin-6-yl)-2,2,N,N-tetramethyl-propane-1,3-diamine], for which the Akt isoform selectivity result in test [1] is on record as “selective Akt1 inhibitor”. The “Caspase 3 activity in the presence of Trail” value in test [3], in test [4] and in test [5] (FIG. 4 (a)) was “increase in Caspase 3 activity” each time.
For `NC(=O)c1[nH]c2ccc(Br)cc2c1S(=O)(=O)N1CCOCC1` [Compound A], the “fold increase in Caspase 3 activation over Camptothecin alone” value in test [2] came out at 8.7 fold. The “fold increase in Caspase 3 activation over Trail alone” value in test [5] (+ TRAIL ligand, FIG. 1) was 1.2 fold.
